Laboratory results as given in patent US20200261421A1, “HETEROCYCLIC COMPOUNDS AS HIV PROTEASE INHIBITORS” (Merck Sharp & Dohme Corp., priority 2016, published 2020).

Target: T1, wild-type HIV-1 protease (Human immunodeficiency virus type 1 group M subtype B, UniProt P04585)
T1 construct: Escherichia coli expressed wild-type HIV-1 protease protein; made in house; host or cells: Escherichia coli
Experiment: Assay for Inhibition of Microbial Expressed HIV Protease
Type: biochemical
Settings: Escherichia coli expressed wild-type HIV-1 protease, peptide substrate cleavage; mean of at least two independent experiments
Method: Inhibition of Escherichia coli expressed wild-type HIV-1 protease protein was carried out with a peptide substrate [Val-Ser-Gln-Asn-Wnaphtyl)Ala-Pro-Ile-Val]. The inhibitor compound was preincubated with HIV-1 protease enzyme in assay buffer (50 mM sodium acetate, pH 5.5, 100 mM NaCl, and 0.1% BSA) for 30 minutes at room temperature. Peptide substrate was added to 400 μM in a total volume of 20 μL containing 20 pM HIV-1 protease (final) after which the reaction was incubated for 1 hour at 30° C. The reaction was quenched by the addition of formic acid and HIV protease inhibitor indinavir to 0.012% and 150 nM final concentrations, respectively. Product formation was determined after separation of product and substrate on a ZORBAX Eclipse XDB-C18 column (Aligent Technologies, Santa Clara, Calif., USA) connected to an API 4000™ mass spectrometer (AB Sciex, Pte. Ltd., Concord Ontario, Canada) with multiple reaction monitoring (transitions were 644.5/428.9 and 615.4/422.2 (M1/M3) for product and indinavir respectively). The extent of inhibition of the reaction was determined from the peak area of the products. Analysis of the products, independently synthesized, provided quantitation standards and confirmation of the product composition. […] Ic50's refer to the 50% inhibition of the cleavage of a peptide substrate by hiv protease.
Data shown in the table reflects the mean of at least two independent experiments.

SMILES | IC50 [nM]
CN(Cc1ccc(Cl)cc1)C(=O)c1cccc(CN2C(=N)NC(c3ccc(F)cc3)(c3cccc(-c4cccc(C#N)c4)c3)C2=O)c1 (stereo not shown) [Example 64, N-(4-chlorobenzyl)-3-{[4-(3'-cyanobiphenyl-3-yl)-4-(4-fluorophenyl)-2-imino-5-oxoimidazolidin-1-yl]methyl}-N-methylbenzamide] | 86.9
COc1ccc(CN2C(=N)NC(c3ccccc3)(c3ccccc3)C2=O)cc1C(=O)N(C)[C@H](C)c1ccccc1 [Example 77, 5-[(2-imino-5-oxo-4,4-diphenylimidazolidin-1-yl)methyl]-2-methoxy-N-methyl-N-[(1R)-1-phenylethyl]benzamide] | 43.4
CC(C)CC1(c2ccccc2)NC(=N)N(Cc2ccc(C(F)(F)F)c(C(=O)NCc3cnccn3)c2)C1=O (stereo not shown) [Example 6, 5-{[2-imino-4-(2-methylpropyl)-5-oxo-4-phenylimidazolidin-1-yl]methyl}-N-(pyrazin-2-ylmethyl)-2-(trifluoromethyl)benzamide] | 46.4
CN(C)C(=O)c1cccc(CN2C(=N)NC(c3ccccc3)(c3cccc(-c4ccco4)c3)C2=O)c1 (stereo not shown) [Example 56, 3-{[4-(3-furan-2-ylphenyl)-2-imino-5-oxo-4-phenylimidazolidin-1-yl]methyl}-N,N-dimethylbenzamide] | 56.3
Cc1cc(CN2C(=N)NC(c3ccc(F)cc3)(c3ccc(F)cc3)C2=O)cc(C(=O)N(C)Cc2ccc(F)cc2)n1 [Example 93, 4-{[4,4-bis(4-fluorophenyl)-2-imino-5-oxoimidazolidin-1-yl]methyl}-N-(4-fluorobenzyl)-N,6-dimethylpyridine-2-carboxamide] | 32.6
CN(Cc1ccc(C#N)cc1)C(=O)c1ccnc(CN2C(=N)NC(c3ccccc3)(c3ccccc3)C2=O)c1 [Example 85, N-(4-cyanobenzyl)-2-[(2-imino-5-oxo-4,4-diphenylimidazolidin-1-yl)methyl]-N-methylpyridine-4-carboxamide] | 5.4
CC(C)C[C@@]1(c2ccccc2)NC(=N)N([C@H](C)c2cccc(C(=O)N(C)Cc3ccc(F)cc3)c2)C1=O [Example 55, N-(4-fluorobenzyl)-3-((R)-1-((S)-2-imino-4-isobutyl-5-oxo-4-phenylimidazolidin-1-yl)ethyl)-N-methylbenzamide] | 52.9
CN(Cc1ccc(Cl)cc1)C(=O)c1cccc(CN2C(=N)NC(c3ccc(F)cc3)(c3cccc(C#N)c3)C2=O)c1 (stereo not shown) [Example 37, N-(4-chlorobenzyl)-3-{[4-(3-cyanophenyl)-4-(4-fluorophenyl)-2-imino-5-oxoimidazolidin-1-yl]methyl}-N-methylbenzamide] | 23.5
CC(C)C[C@]1(c2ccccc2)NC(=N)N([C@H](C)c2cccc(C(=O)N(C)Cc3ccc(F)cc3)c2)C1=O [Example 33, N-(4-fluorobenzyl)-3-((R)-1-((R)-2-imino-4-isobutyl-5-oxo-4-phenylimidazolidin-1-yl)ethyl)-N-methylbenzamide] | 19.8
CCN(Cc1ccc(F)cc1)C(=O)c1cccc(CN2C(=N)NC(c3ccc(F)cc3)(c3ccc(F)cc3)C2=O)c1 [Example 42, 3-{[4,4-bis(4-fluorophenyl)-2-imino-5-oxoimidazolidin-1-yl]methyl}-N-ethyl-N-(4-fluorobenzyl)benzamide] | 28.6
CN(Cc1ccc(Cl)cc1)C(=O)c1cccc(CN2C(=N)NC(c3ccc(F)cc3)(c3cccc(Br)c3)C2=O)c1 (stereo not shown) [Example 40, 3-{[4-(3-bromophenyl)-4-(4-fluorophenyl)-2-imino-5-oxoimidazolidin-1-yl]methyl}-N-(4-chlorobenzyl)-N-methylbenzamide] | 25.9
CC(C)CC1(c2cccc(F)c2)NC(=N)N(Cc2cccc(C(=O)N(C)Cc3ccc(C#N)cc3)c2)C1=O (stereo not shown) [Example 69, N-(4-cyanobenzyl)-3-{[4-(3-fluorophenyl)-2-imino-4-(2-methylpropyl)-5-oxoimidazolidin-1-yl]methyl}-N-methylbenzamide] | 97.1
CC(C)CCC1(c2ccccc2)NC(=N)N(Cc2ccc(C(F)(F)F)c(C(=O)NCC(F)F)c2)C1=O (stereo not shown) [Example 10, N-(2,2-difluoroethyl)-5-{[2-imino-4-(3-methylbutyl)-5-oxo-4-phenylimidazolidin-1-yl]methyl}-2-(trifluoromethyl)benzamide] | 91.2
CC(C)CC1(c2ccccc2)NC(=N)N(Cc2ccc(C(F)(F)F)c(C(=O)NCc3ncccn3)c2)C1=O (stereo not shown) [Example 11, 5-{[2-imino-4-(2-methylpropyl)-5-oxo-4-phenylimidazolidin-1-yl]methyl}-N-(pyrimidin-2-ylmethyl)-2-(trifluoromethyl)-benzamide] | 92.1
N=C1NC(c2ccccc2)(c2ccccc2)C(=O)N1Cc1ccc(C(F)(F)F)c(C(=O)NCc2cccc(OC(F)F)c2)c1 [Example 9, N-[3-(difluoromethoxy)benzyl]-5-[(2-imino-5-oxo-4,4-diphenylimidazolidin-1-yl)methyl]-2-(trifluoromethyl)benzamide] | 68.4
CN(C)C(=O)c1cccc(CN2C(=N)NC(c3ccccc3)(c3ccc(-c4cccc(C#N)c4)cc3)C2=O)c1 (stereo not shown) [Example 54, 3-{[4-(3'-cyanobiphenyl-4-yl)-2-imino-5-oxo-4-phenylimidazolidin-1-yl]methyl}-N,N-dimethylbenzamide] | 52.2
COc1ccc(CN2C(=N)NC(c3ccccc3)(c3ccccc3)C2=O)cc1C(=O)N(C)Cc1ccc(F)cc1 [Example 78, N-(4-fluorobenzyl)-5-[(2-imino-5-oxo-4,4-diphenylimidazolidin-1-yl)methyl]-2-methoxy-N-methylbenzamide] | 53.6
CN(Cc1ccccn1)C(=O)c1cccc(CN2C(=N)NC(c3ccc(F)cc3)(c3ccc(F)cc3)C2=O)c1 [Example 59, 3-{[4,4-bis(4-fluorophenyl)-2-imino-5-oxoimidazolidin-1-yl]methyl}-N-methyl-N-(pyridin-2-ylmethyl)benzamide] | 65.9
CN(C)C(=O)c1cccc(CN2C(=N)NC(c3ccccc3)(c3cccc(-c4cccc(C#N)c4)c3)C2=O)c1 (stereo not shown) [Example 51, 3-{[4-(3'-cyanobiphenyl-3-yl)-2-imino-5-oxo-4-phenylimidazolidin-1-yl]methyl}-N,N-dimethylbenzamide] | 45.5
CN(Cc1ccc(F)cc1)C(=O)c1csc(CN2C(=N)NC(c3ccccc3)(c3ccccc3)C2=O)c1 [Example 94, N-(4-fluorobenzyl)-5-[(2-imino-5-oxo-4,4-diphenylimidazolidin-1-yl)methyl]-N-methylthiophene-3-carboxamide] | 8.9
CN(Cc1ccc(F)cc1)C(=O)c1cncc(CN2C(=N)NC(c3ccc(F)cc3)(c3ccc(F)cc3)C2=O)c1 [Example 80, 5-{[4,4-bis(4-fluorophenyl)-2-imino-5-oxoimidazolidin-1-yl]methyl}-N-(4-fluorobenzyl)-N-methylpyridine-3-carboxamide] | 15.4
CC(C)CCC1(c2ccccc2)NC(=N)N(Cc2cccc(C(=O)N(C)Cc3ccc(C#N)cc3)c2)C1=O (stereo not shown) [Example 14, N-(4-cyanobenzyl)-3-{[2-imino-4-(3-methylbutyl)-5-oxo-4-phenylimidazolidin-1-yl]methyl}-N-methylbenzamide] | 7.35
C[C@H](c1ccc(F)cc1)N(C)C(=O)c1cncc(CN2C(=N)NC(c3ccc(F)cc3)(c3ccc(F)cc3)C2=O)c1 [Example 79, 5-{[4,4-bis(4-fluorophenyl)-2-imino-5-oxoimidazolidin-1-yl]methyl}-N-[(1R)-1-(4-fluorophenyl)ethyl]-N-methylpyridine-3-carboxamide] | 13.7
CC(C)CC[C@]1(c2ccccc2)NC(=N)N([C@H](C)c2cccc(C(=O)N(C)Cc3ccc(F)cc3)c2)C1=O [Example 15, N-(4-fluorobenzyl)-3-{(1R)-1-[2-imino-4-(3-methylbutyl)-5-oxo-4-phenylimidazolidin-1-yl]ethyl}-N-methylbenzamide] | 9.11
CC(C)CCC1(c2ccccc2)NC(=N)N(Cc2cccc(C(=O)N(C)Cc3ccccc3S(C)(=O)=O)c2)C1=O (stereo not shown) [Example 29, 3-{[2-imino-4-(3-methylbutyl)-5-oxo-4-phenylimidazolidin-1-yl]methyl}-N-methyl-N-[2-(methylsulfonyl)-benzyl]benzamide] | 17.8
CN(Cc1ccnc(Cl)c1)C(=O)c1cccc(CN2C(=N)NC(c3ccc(F)cc3)(c3ccc(F)cc3)C2=O)c1 [Example 38, 3-{[4,4-bis(4-fluorophenyl)-2-imino-5-oxoimidazolidin-1-yl]methyl}-N-[(2-chloropyridin-4-yl)methyl]-N-methylbenzamide] | 23.8
CC(C)CCC1(c2ccc(F)cc2)NC(=N)N(Cc2cccc(C(=O)N(C)Cc3ccc(C#N)cc3)c2)C1=O (stereo not shown) [Example 35, N-(4-cyanobenzyl)-3-{[4-(4-fluorophenyl)-2-imino-4-(3-methylbutyl)-5-oxoimidazolidin-1-yl]methyl}-N-methylbenzamide] | 20.5
CN(Cc1ccc(F)cc1)C(=O)c1cccc(CN2C(=N)NC(c3ccccc3)(c3ccccc3)C2=O)c1 [Example 32, N-(4-fluorobenzyl)-3-[(2-imino-5-oxo-4,4-diphenylimidazolidin-1-yl)methyl]-N-methylbenzamide] | 19.3
